Assay results as given in patent US20200000969A1, “HYALURONIC ACID COMPOSITIONS INCLUDING MEPIVACAINE” (LABORATOIRES VIVACY, priority 2013, published 2020).

Tests used:
[1] = Release kinetics of local anesthetic from hyaluronic acid gel by dialysis, UV-visible spectrophotometry; assay type: physicochemical; conditions: HA 3×10^6 Da, X=0.12, 20 mg/g; for mass percentage of local anesthetic in the hyaluronic acid gel: initial 3 mg/g, 37° C., physiological saline
Procedure: The release kinetics were, however, studied at 37° C. in physiological saline medium. Monitoring by UV-visible spectrophotometry is performed to assay the local anesthetic present in the gel.

[2] = cited from earlier work

Cc1cccc(C)c1NC(=O)C1CCCCN1C (stereo not drawn) [Mepivacaine, mepivacaine]
release kinetics from the hyaluronic acid gel (FIG. 1), lidocaine versus mepivacaine ([1]; 3 mg/g, dialysis at 37° C. in physiological saline): comparable | mass percentage of local anesthetic in the hyaluronic acid gel ([1]; dialysis time 0 h): 0.290 mass % | mass percentage of local anesthetic in the hyaluronic acid gel ([1]; dialysis time 1.5 h): 0.133 mass % | mass percentage of local anesthetic in the hyaluronic acid gel ([1]; dialysis time 5 h): 0.100 mass % | mass percentage of local anesthetic in the hyaluronic acid gel ([1]; dialysis time 7 h): 0.098 mass % | mass percentage of local anesthetic in the hyaluronic acid gel ([1]; dialysis time 23 h): 0.086 mass % | mass percentage of local anesthetic in the hyaluronic acid gel ([1]; dialysis time 48 h): 0.077 mass % | mass percentage of local anesthetic in the hyaluronic acid gel ([1]; dialysis time 72 h): 0.075 mass % | pKa [2]: 7.7
